Measured values: article PMC8540349, “GOBP1 from the Variegated Cutworm Peridroma saucia (Hübner) (Lepidoptera: Noctuidae) Displays High Binding Affinities to the Behavioral Attractant (Z)-3-Hexenyl acetate” (Insects, 2021)
Entries after “also recorded” stand apart in the source; their conditions may differ. Blank lines part the entries; values can stand above or below the compound they belong to.

Assays:
recombinant PsauGOBP1 = assay: Fluorescence competitive-binding assay with 1-NPN as probe; set-up: species or system Peridroma saucia; conditions: mean ± SE; for IC50: 1-NPN displacement, Tris-HCl pH 7.4, 25 °C, read-out: IC50 (concentration of ligand halving the initial fluorescence value); for IC50 / Fluorescence (%) at Maximum Concentration: three experiments; for Fluorescence (%) at Maximum Concentration: remaining 1-NPN fluorescence
Experimental: Emission fluorescence spectra were recorded on a Hitachi F-4500 at 25 °C, with a 1 cm light path quartz cuvette and 5 nm slits for both excitation and emission. The protein was dissolved in 50 mM Tris-HCl buffer, pH 7.4, and ligands were added as 1 mM methanol solutions. To measure the affinity of the fluorescent ligand N-phenyl-1-naphthylamine (1-NPN) to PsauGOBP1, a […] solution of the protein in 50 mM Tris-HCl, pH 7.4, was titrated with aliquots of 1 mM ligand in methanol to a final concentration of 16 µM. The probe was excited at 337 nm, and emission spectra were recorded between 380 and 450 nm. To analyze the binding affinity of other ligands to PsauGOBP1, a panel of 34 compounds including moth sex pheromones and host plant volatiles were used in the competitive-binding assay. A solution of the protein and 1-NPN, both at the concentration of […], was titrated with 1 mM methanol solutions of each competitor at a concentration of 12 (sex pheromones) or 16 µM (host plant volatiles).
The dissociation constant for 1-NPN and the stoichiometry of binding were obtained by processing the data with GraphPad Prism 6. Dissociation constants of the competitors were calculated from the corresponding IC50 values (concentrations of ligands that reduced the initial fluorescence value of 1-NPN by 50%), using the following equation: KD = [IC50]/1 + [1-NPN]/K1-NPN, where [1-NPN] is the free concentration of 1-NPN, and K1-NPN is the dissociation constant of the protein/1-NPN complex.

P. saucia antennae = assay: Electroantennogram (EAG) recording; set-up: species or system Peridroma saucia; conditions: dose 100 µg, two- to three-day-old males and females, versus paraffin oil control, n = 20
Experimental: Individual synthetic nonanal, citral, farnesol, benzaldehyde, (Z)-3-hexenyl acetate, and (Z)-3-hexen-1-ol was diluted with paraffin oil to make each solution of 10 μg/μL. Each solution was added onto a filter paper (0.2 × 1 cm), and the final loading capacity doses of each solution were 100 μg. A 10 μL volume of paraffin oil was used as the control. Two- to three-day-old male and female P. saucia were used to obtain EAG recordings for the six volatiles. As described by Sun et al. with modification, the antennae were cut from the head and used for electro-signal recordings. After a few segments of the tip were cut off, the antenna was glued to the antenna holder (using conductive gel, Spectra 360, Parker Lab, NJ, USA), and the antenna holder was inserted into the EAG probe. The EAG signal was first amplified with a DC/AC preamplifier (Syntech UN-06), and was further processed with Autospike software (Syntech, Hilversum, the Netherlands).
The EAG data were analyzed using GraphPad Prism 6. The level of significance was set at p < 0.05. Unpaired Student’s t-tests were used to compare the EAG responses of male vs. female P. saucia. For comparison of responses to the six volatiles, the EAG data were first subjected to a one-way ANOVA; this was done separately for males and females. If the ANOVA was significant, means were compared with Tukey’s multiple comparison test.

[1] = host plant volatiles, maximum concentration 16 (µM)
[2] = sex pheromones, maximum concentration 12 (µM)

Compound: C=C(C)[C@H]1CC=C(C)CC1 [D-limonene]
IC50 (recombinant PsauGOBP1): > 20 µM
Fluorescence (%) at Maximum Concentration (recombinant PsauGOBP1; [1]): 100 ± 5%

Compound: CCCCCCCO [Heptanol]
IC50 (recombinant PsauGOBP1): > 20 µM
Fluorescence (%) at Maximum Concentration (recombinant PsauGOBP1; [1]): 65 ± 4%

Compound: CC/C=C\CC1=C(C)CCC1=O [(Z)-jasmone]
IC50 (recombinant PsauGOBP1): > 20 µM
Fluorescence (%) at Maximum Concentration (recombinant PsauGOBP1; [1]): 83 ± 5%

Compound: CCCCCC/C=C\CCCCCCCCO [Z9-16: OH]
IC50 (recombinant PsauGOBP1): > 20 µM
Fluorescence (%) at Maximum Concentration (recombinant PsauGOBP1; [2]): 76 ± 1%

Compound: CCCCCC/C=C\CCCCCCCC=O [Z9-16: Ald]
IC50 (recombinant PsauGOBP1): > 20 µM
Fluorescence (%) at Maximum Concentration (recombinant PsauGOBP1; [2]): 82 ± 3%

Compound: CC(=O)OCCc1ccccc1 [Phenylethyl acetate]
IC50 (recombinant PsauGOBP1): > 20 µM
Fluorescence (%) at Maximum Concentration (recombinant PsauGOBP1; [1]): 64 ± 2%

Compound: CCCC/C=C\CCCCCCCCCCOC(C)=O [Z11-16: Ac]
IC50 (recombinant PsauGOBP1): > 20 µM
Fluorescence (%) at Maximum Concentration (recombinant PsauGOBP1; [2]): 70 ± 2%

Compound: CCCC/C=C\CCCCCCCCOC(C)=O [Z9-14: Ac]
IC50 (recombinant PsauGOBP1): > 20 µM
Fluorescence (%) at Maximum Concentration (recombinant PsauGOBP1; [2]): 78 ± 2%

Compound: CCC/C=C/C=O [(E)-2-hexenal]
IC50 (recombinant PsauGOBP1): > 20 µM
Fluorescence (%) at Maximum Concentration (recombinant PsauGOBP1; [1]): 64 ± 4%

Compound: C=C1CC/C=C(\C)CC[C@@H]2[C@@H]1CC2(C)C [(E)-caryophyllene]
IC50 (recombinant PsauGOBP1): > 20 µM
Fluorescence (%) at Maximum Concentration (recombinant PsauGOBP1; [1]): 75 ± 1%

Compound: COC(=O)c1ccccc1O [Methyl salicylate]
IC50 (recombinant PsauGOBP1): > 20 µM
Fluorescence (%) at Maximum Concentration (recombinant PsauGOBP1; [1]): 73 ± 3%

Second part, led by results:

IC50 (recombinant PsauGOBP1): > 20 µM
Fluorescence (%) at Maximum Concentration (recombinant PsauGOBP1; [1]): 77 ± 7%
Compound: CCC/C=C/COC(C)=O [(E)-2-hexenyl acetate]

IC50 (recombinant PsauGOBP1): > 20 µM
Fluorescence (%) at Maximum Concentration (recombinant PsauGOBP1; [1]): 67 ± 2%
Compound: CCC/C=C/CO [(E)-2-hexen-1-ol]

IC50 (recombinant PsauGOBP1): > 20 µM
Fluorescence (%) at Maximum Concentration (recombinant PsauGOBP1; [1]): 79 ± 2%
Compound: C=CC(C)(O)CCC=C(C)C (stereo not drawn) [Linalool]

IC50 (recombinant PsauGOBP1): > 20 µM
Fluorescence (%) at Maximum Concentration (recombinant PsauGOBP1; [1]): 74 ± 7%
Compound: C=CC(C)=CCC=C(C)C [Ocimene]

IC50 (recombinant PsauGOBP1): 17.4 ± 1.5 µM
Kd (recombinant PsauGOBP1; calculated from IC50 with KD = [IC50]/1 + [1-NPN]/K1-NPN, read-out: KD (calculated dissociation constant)): 8.5 ± 0.6 µM
Fluorescence (%) at Maximum Concentration (recombinant PsauGOBP1; [1]): 58 ± 3%
Compound: CC/C=C\CCO [(Z)-3-hexen-1-ol]
EAG response of male and female antennae (P. saucia antennae): strong responses; also recorded: relatively strong

IC50 (recombinant PsauGOBP1): > 20 µM
Fluorescence (%) at Maximum Concentration (recombinant PsauGOBP1; [1]): 87 ± 4%
Compound: C=CC(=C)CC/C=C(\C)CCC=C(C)C [(E)-β-farnesene]
